Legend:
[1] = target: T1, polB (9°Nm DNA polymerase; 9°N/E143D) (Thermococcus sp. 9oN-7, UniProt Q56366, E143D); assay: [α-32P]-dCTP incorporation into primed M13mp18, acid precipitation; type: biochemical
T1 construct: gene pol; commercial recombinant 9°Nm DNA polymerase (New England Biolabs), E143D variant in exonuclease domain; single subunit
T1 sequence (Q56366 1-775 E143D): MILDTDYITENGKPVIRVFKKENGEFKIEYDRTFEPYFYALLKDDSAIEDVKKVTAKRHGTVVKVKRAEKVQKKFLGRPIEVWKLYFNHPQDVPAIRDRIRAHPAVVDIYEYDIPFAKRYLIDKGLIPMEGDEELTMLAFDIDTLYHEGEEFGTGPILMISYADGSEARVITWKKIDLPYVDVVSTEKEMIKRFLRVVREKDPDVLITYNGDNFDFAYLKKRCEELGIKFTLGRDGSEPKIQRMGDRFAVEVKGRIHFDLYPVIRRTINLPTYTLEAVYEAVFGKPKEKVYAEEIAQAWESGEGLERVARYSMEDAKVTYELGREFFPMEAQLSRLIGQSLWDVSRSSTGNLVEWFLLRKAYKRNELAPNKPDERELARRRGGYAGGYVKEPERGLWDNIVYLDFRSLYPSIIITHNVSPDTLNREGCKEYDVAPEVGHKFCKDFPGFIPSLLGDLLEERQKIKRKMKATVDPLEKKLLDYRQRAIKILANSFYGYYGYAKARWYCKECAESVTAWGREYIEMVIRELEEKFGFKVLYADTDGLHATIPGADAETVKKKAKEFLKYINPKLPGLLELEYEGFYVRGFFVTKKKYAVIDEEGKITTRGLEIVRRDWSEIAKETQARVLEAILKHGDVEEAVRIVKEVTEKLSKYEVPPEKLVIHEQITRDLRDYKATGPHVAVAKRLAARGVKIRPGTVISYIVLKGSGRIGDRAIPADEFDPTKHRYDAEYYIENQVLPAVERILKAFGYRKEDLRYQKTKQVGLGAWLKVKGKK

[2] = tested on: T2, polD (heterodimer of polD-S and polD-L); assay: as above; type: biochemical, Thermococcus sp. 9°N; conditions: 10 nM enzyme, 15 nM primed M13mp18, 50 µM dNTPs, ThermoPol buffer pH 8.8 (2 mM MgSO4), 65 °C, 20 min; read-out: not inhibited by up to 0.4 mM
T2 construct: gene polC; E. coli T7 Express/pRIL, untagged, co-expressed plasmids pERE1 and pERF5, co-purified heterodimer; with DNA polymerase II small subunit

C[C@@]1(CO)[C@H](O)CC[C@@]2(C)[C@H]1CC[C@H]1C[C@@H]3C[C@@]12CC[C@]3(O)CO [aphidicolin]
IC50 [1]: 300 µM | IC50 [2]: > 400 µM
